Patent US20260297070A1, “CYCLIC [COMPOUND LEFT OUT] WRN INHIBITORS” (Nimbus Wadjet, Inc., priority 2023, published 2026)
pIC50: −log10 of the molar value.

These compounds were tested against T1, human Werner helicase (WRN-BV08, Uniprot Q14191, amino acids 517-1235 with L1074F point mutation) (Homo sapiens, UniProt Q14191, L1074F) (assay: WRN (BV08) ADP-Glo Assay). Details: 0.15 nM WRN, 5 μM ATP, 0.1 nM DNA duplex, 15 min preincubation, 60 min at 25° C., pH 7.5, 1% DMSO; read-out: ADP-Glo_hWRN_IC50.
T1 construct: Uniprot Q14191, amino acids 517-1235 with L1074F point mutation; TEV-cleavable 8×His (C, cleaved yes); made in house; host or cells: Sf9 insect cells (baculovirus)
Assay type: biochemical
Summary of the method: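 Percent inhibition was normalised to DMSO (max) and 20 μM NSC-617145 (min) controls from ADP-Glo luminescence, and IC50 values came from a four-parameter fit. The reaction ran 60 min at 25 °C with 0.15 nM WRN, 5 μM ATP and 0.1 nM duplex DNA.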

T1 sequence (Q14191 with tags, fused parts or gaps L1074F limits assumed): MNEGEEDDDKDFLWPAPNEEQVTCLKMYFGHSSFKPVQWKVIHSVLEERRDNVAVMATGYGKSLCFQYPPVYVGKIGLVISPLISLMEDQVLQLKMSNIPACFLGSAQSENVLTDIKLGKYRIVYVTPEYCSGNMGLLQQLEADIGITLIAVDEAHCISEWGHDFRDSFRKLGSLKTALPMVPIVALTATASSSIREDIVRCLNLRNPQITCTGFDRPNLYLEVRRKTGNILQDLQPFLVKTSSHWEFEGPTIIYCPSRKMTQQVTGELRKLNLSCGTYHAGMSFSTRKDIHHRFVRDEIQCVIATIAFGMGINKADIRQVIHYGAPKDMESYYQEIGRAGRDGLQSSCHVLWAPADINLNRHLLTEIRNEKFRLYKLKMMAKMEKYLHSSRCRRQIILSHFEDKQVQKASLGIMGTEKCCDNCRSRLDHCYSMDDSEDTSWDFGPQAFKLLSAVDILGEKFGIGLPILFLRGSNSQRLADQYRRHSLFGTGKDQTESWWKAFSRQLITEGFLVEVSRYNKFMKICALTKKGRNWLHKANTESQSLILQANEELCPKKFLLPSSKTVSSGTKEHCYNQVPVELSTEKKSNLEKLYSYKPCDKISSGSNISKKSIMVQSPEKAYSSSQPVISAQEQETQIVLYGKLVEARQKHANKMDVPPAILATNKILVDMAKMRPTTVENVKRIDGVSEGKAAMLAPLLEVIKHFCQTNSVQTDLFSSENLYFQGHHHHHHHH

Compound | pIC50
O=C(Cn1nc(-c2ccc(F)cc2)oc1=O)N(Cc1ccncc1)C1C=CS(=O)(=O)C1 (stereo not shown) [I-349, N-(1,1-dioxo-2,3-dihydro-1lambda6-thiophen-3-yl)-2-[5-(4-fluorophenyl)-2-oxo-2,3-dihydro-1,3,4-oxadiazol-3-yl]-N-[(pyridin-4-yl)methyl]acetamide] | 4.30 to 5.00
O=C(C1Cc2cc(-c3ccc(F)cc3)ccc21)N(Cc1ccncc1)C1C=CS(=O)(=O)C1 (stereo not shown) [I-249, N-(1,1-dioxo-2,3-dihydro-1lambda6-thiophen-3-yl)-3-(4-fluorophenyl)-N-[(pyridin-4-yl)methyl]bicyclo[4.2.0]octa-1(6),2,4-triene-7-carboxamide] | 5.00 to 5.30
O=C(Cn1cnc(-c2ccccc2)cc1=O)N(Cc1ccncc1)C1C=CS(=O)(=O)C1 (stereo not shown) [I-325, N-(1,1-dioxo-2,3-dihydro-1lambda6-thiophen-3-yl)-2-(6-oxo-4-phenyl-1,6-dihydropyrimidin-1-yl)-N-[(pyridin-4-yl)methyl]acetamide] | 4.30 to 5.00
O=C(Cc1cc(-c2ccccc2)on1)N(Cc1ccncc1)C1C=CS(=O)(=O)C1 (stereo not shown) [I-354, N-(1,1-dioxo-2,3-dihydro-1lambda6-thiophen-3-yl)-2-(5-phenyl-1,2-oxazol-3-yl)-N-[(pyridin-4-yl)methyl]acetamide] | 4.30 to 5.00
O=C(Cc1ccc2c(c1)CCCC2)N(Cc1ccncc1)C1C=CS(=O)(=O)C1 (stereo not shown) [I-643, N-(1,1-dioxo-2,3-dihydro-1lambda6-thiophen-3-yl)-N-[(pyridin-4-yl)methyl]-2-(5,6,7,8-tetrahydronaphthalen-2-yl)acetamide] | 4.30 to 5.00
O=C(C1CC(c2ccc(F)cc2)C1)N(Cc1ccncc1)C1C=CS(=O)(=O)C1 (stereo not shown) [I-614, N-(1,1-dioxo-2,3-dihydro-1lambda6-thiophen-3-yl)-3-(4-fluorophenyl)-N-[(pyridin-4-yl)methyl]cyclobutane-1-carboxamide] | < 4.30
O=C(Cc1ccc(-n2cccc2)cc1)N(Cc1ccc(B(O)O)cc1)C1C=CS(=O)(=O)C1 (stereo not shown) [I-321, (4-((2-(4-(1H-pyrrol-1-yl)phenyl)-N-(1,1-dioxido-2,3-dihydrothiophen-3-yl)acetamido)methyl)phenyl)boronic acid] | 4.30 to 5.00
O=C(Cc1ccc(N2CCC2)cc1)N(Cc1ccncc1)C1C=CS(=O)(=O)C1 (stereo not shown) [I-461, 2-[4-(azetidin-1-yl)phenyl]-N-(1,1-dioxo-2,3-dihydro-1lambda6-thiophen-3-yl)-N-[(pyridin-4-yl)methyl]acetamide] | < 4.30
COCC(C(=O)N(Cc1ccnc(C(C)(C)O)c1)[C@@H]1C=CS(=O)(=O)C1)c1ccc(S(F)(F)(F)(F)F)cc1 (single isomer, unassigned) [I-675] | 4.30 to 5.00
O=C(Cc1ccc(C2CCCC2O)cc1)N(Cc1ccncc1)C1C=CS(=O)(=O)C1 (stereo not shown) [I-449, N-(1,1-dioxo-2,3-dihydro-1lambda6-thiophen-3-yl)-2-[4-(2-hydroxycyclopentyl)phenyl]-N-[(pyridin-4-yl)methyl]acetamide] | < 4.30
O=C(CCc1[nH]nc2ccccc12)N(Cc1ccncc1)C1C=CS(=O)(=O)C1 (stereo not shown) [I-413, N-(1,1-dioxo-2,3-dihydro-1lambda6-thiophen-3-yl)-3-(2H-indazol-3-yl)-N-[(pyridin-4-yl)methyl]propanamide] | < 4.30
Cc1nc(CN(C(=O)Cc2ccc(-n3cccc3)cc2)C2C=CS(=O)(=O)C2)cs1 (stereo not shown) [I-335, N-(1,1-dioxo-2,3-dihydro-1lambda6-thiophen-3-yl)-N-[(2-methyl-1,3-thiazol-4-yl)methyl]-2-[4-(1H-pyrrol-1-yl)phenyl]acetamide] | 4.30 to 5.00
O=C(Cc1ccc(-n2cccc2)cc1)N(Cc1cccc2[nH]ccc12)C1C=CS(=O)(=O)C1 (stereo not shown) [I-497, N-(1,1-dioxo-2,3-dihydro-1lambda6-thiophen-3-yl)-N-[(1H-indol-4-yl)methyl]-2-[4-(1H-pyrrol-1-yl)phenyl]acetamide] | < 4.30
O=C(Cc1ccc(S(F)(F)(F)(F)F)cc1)N(Cc1nnc(C2CC2)s1)C1C=CS(=O)(=O)C1 (stereo not shown) [I-645, N-[(5-cyclopropyl-1,3,4-thiadiazol-2-yl)methyl]-N-(1,1-dioxo-2,3-dihydro-1lambda6-thiophen-3-yl)-2-[4-(pentafluoro-lambda6-sulfanyl)phenyl]acetamide] | 5.30 to 6.30
O=C([C@H]1[C@@H]2CC(F)(F)C[C@@H]21)N(Cc1ccncc1)C1C=CS(=O)(=O)C1 (stereo partly drawn) [I-617, (1R,5S,6R)-N-(1,1-dioxo-2,3-dihydro-1lambda6-thiophen-3-yl)-3,3-difluoro-N-[(pyridin-4-yl)methyl]bicyclo[3.1.0]hexane-6-carboxamide] | < 4.30
O=C([C@@H]1CC[C@@H](c2ccccc2)C1)N(Cc1ccncc1)C1C=CS(=O)(=O)C1 (mixture of isomers) [I-655, rac-(1R,3R)-N-(1,1-dioxo-2,3-dihydro-1lambda6-thiophen-3-yl)-3-phenyl-N-[(pyridin-4-yl)methyl]cyclopentane-1-carboxamide] | < 4.30
COc1cc(CN(C(=O)C2Cc3cc(-n4cccc4)ccc32)C2C=CS(=O)(=O)C2)ccn1 (stereo not shown) [I-93, N-(1,1-dioxo-2,3-dihydro-1lambda6-thiophen-3-yl)-N-[(2-methoxypyridin-4-yl)methyl]-3-(1H-pyrrol-1-yl)bicyclo[4.2.0]octa-1,3,5-triene-7-carboxamide] | 5.30 to 6.30
O=C(c1c[nH]c2cc(-c3ccc(F)cc3)ccc12)N(Cc1ccncc1)C1C=CS(=O)(=O)C1 (stereo not shown) [I-423, N-(1,1-dioxo-2,3-dihydro-1lambda6-thiophen-3-yl)-6-(4-fluorophenyl)-N-[(pyridin-4-yl)methyl]-1H-indole-3-carboxamide] | < 4.30
Cn1cc(CN(C(=O)Cc2ccc(-n3cccc3)cc2)C2C=CS(=O)(=O)C2)cn1 (stereo not shown) [I-481, N-(1,1-dioxo-2,3-dihydro-1lambda6-thiophen-3-yl)-N-[(1-methyl-1H-pyrazol-4-yl)methyl]-2-[4-(1H-pyrrol-1-yl)phenyl]acetamide] | < 4.30
COCc1cc(-c2ccc(F)cc2)ccc1CC(=O)N(Cc1ccncc1)C1C=CS(=O)(=O)C1 (stereo not shown) [I-376, N-(1,1-dioxo-2,3-dihydro-1lambda6-thiophen-3-yl)-2-[4′-fluoro-3-(methoxymethyl)-[1,1′-biphenyl]-4-yl]-N-[(pyridin-4-yl)methyl]acetamide] | < 4.30

The remaining lines, values ahead:

pIC50 | Compound
5.30 to 6.30 | O=C(Cc1ccc(-n2cccc2)cc1)N(Cc1ccnc(C(F)F)c1)C1C=CS(=O)(=O)C1 (stereo not shown) [I-187, N-{[2-(difluoromethyl)pyridin-4-yl]methyl}-N-(1,1-dioxo-2,3-dihydro-1lambda6-thiophen-3-yl)-2-[4-(1H-pyrrol-1-yl)phenyl]acetamide]
> 6.30 | CC(F)(F)c1csc(CN(C(=O)Cc2ccc(S(F)(F)(F)(F)F)cc2)C2C=CS(=O)(=O)C2)n1 (stereo not shown) [I-625, N-{[4-(1,1-difluoroethyl)-1,3-thiazol-2-yl]methyl}-N-(1,1-dioxo-2,3-dihydro-1lambda6-thiophen-3-yl)-2-[4-(pentafluoro-lambda6-sulfanyl)phenyl]acetamide]
> 6.30 | CC(C)(O)c1cc(CN(C(=O)C(OC2CC2)c2ccc(-c3ccc(F)c(F)c3)cc2F)[C@@H]2C=CS(=O)(=O)C2)ccn1 (single isomer, unassigned) [I-681]
> 6.30 | CCN(C)C(=O)C(C(=O)N(Cc1ccnc(C(C)(C)O)c1)C1C=CS(=O)(=O)C1)c1ccc(-c2ccc(F)c(F)c2)cc1F (stereo not shown) [I-75, N′-(1,1-dioxo-2,3-dihydro-1lambda6-thiophen-3-yl)-N-ethyl-N′-{[2-(2-hydroxypropan-2-yl)pyridin-4-yl]methyl}-N-methyl-2-{3,3′,4′-trifluoro-[1,1′-biphenyl]-4-yl}propanediamide]
> 6.30 | COc1cc(CN(C(=O)C(OC)c2ccc(-c3ccc(F)c(F)c3)cc2F)C2C=CS(=O)(=O)C2)ccn1 (stereo not shown) [I-45, N-(1,1-dioxo-2,3-dihydro-1lambda6-thiophen-3-yl)-2-methoxy-N-[(2-methoxypyridin-4-yl)methyl]-2-{3,3′,4′-trifluoro-[1,1′-biphenyl]-4-yl}acetamide]
5.30 to 6.30 | CC(C)(N)c1ccc(CN(C(=O)Cn2cc(-c3ccc(F)c(F)c3)cn2)C2C=CS(=O)(=O)C2)cc1 (stereo not shown) [I-795, N-{[4-(2-aminopropan-2-yl)phenyl]methyl}-2-[4-(3,4-difluorophenyl)-1H-pyrazol-1-yl]-N-(1,1-dioxo-2,3-dihydro-1lambda6-thiophen-3-yl)acetamide]
> 6.30 | O=C(Cc1ccc(S(F)(F)(F)(F)F)cc1)N(Cc1ccncc1)C1C=CS(=O)(=O)C1 (single isomer, unassigned) [I-51]
5.30 to 6.30 | Cc1cccn1-c1ccc(CC(=O)N(Cc2ccc(C(=O)O)cc2)C2C=CS(=O)(=O)C2)c(F)c1 (stereo not shown) [I-138, 4-{[N-(1,1-dioxo-2,3-dihydro-1lambda6-thiophen-3-yl)-2-[2-fluoro-4-(2-methyl-1H-pyrrol-1-yl)phenyl]acetamido]methyl}benzoic acid]
5.30 to 6.30 | O=C(Cc1ccc(-n2cccc2)cc1)N(Cc1nc(-c2cccnc2)cs1)C1C=CS(=O)(=O)C1 (stereo not shown) [I-146, N-(1,1-dioxo-2,3-dihydro-1lambda6-thiophen-3-yl)-N-{[4-(pyridin-3-yl)-1,3-thiazol-2-yl]methyl}-2-[4-(1H-pyrrol-1-yl)phenyl]acetamide]
> 6.30 | COc1cc(CN(C(=O)Cc2ccc(S(F)(F)(F)(F)F)cc2)[C@@H]2C=CS(=O)(=O)C2)ccn1 [I-17, N-[(3R)-1,1-dioxo-2,3-dihydro-1lambda6-thiophen-3-yl]-N-[(2-methoxypyridin-4-yl)methyl]-2-[4-(pentafluoro-lambda6-sulfanyl)phenyl]acetamide]
> 6.30 | O=C(Cc1ccc(-c2ccc(F)cc2)cc1F)N(Cc1nc(C2CC2)cs1)C1C=CS(=O)(=O)C1 (stereo not shown) [I-80, N-[(4-cyclopropyl-1,3-thiazol-2-yl)methyl]-2-{3,4′-difluoro-[1,1′-biphenyl]-4-yl}-N-(1,1-dioxo-2,3-dihydro-1lambda6-thiophen-3-yl)acetamide]
